Drawing on PubChem BioAssay (NCI), this text covers GI50 and TGI for ten compounds.

Each structure is given as a SMILES string.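 Five compound concentrations were applied to cells in 96-well plates for 48 hours; endpoints were derived by simple linear interpolation of the resulting dose-response curve. The concentration for 50% growth inhibition is given as GI50. TGI: concentration producing complete growth inhibition.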

Test systems include NCI-H23 lung; NCI-H226 lung; LOX IMVI melanoma; SN12C renal; IGROV1 ovarian; ACHN renal; SNB-75 CNS; RPMI-8226 leukemia; OVCAR-8 ovarian; MALME-3M melanoma.
Common to all, as to assay: DTP human tumour cell line panel, 48 h

Consider `NC1=CC(=O)C(=O)c2cccnc21`, for which the GI50 in the assay on NCI-H23 lung was 2.06 µM; in the assay with NCI-H226 lung, 14.7 µM; with LOX IMVI melanoma, 1.7 µM; in the assay with SN12C renal it was 3.11 µM; in the assay with IGROV1 ovarian it was 7.91 µM; in the assay with ACHN renal it was 6.73 µM. Moreover, the GI50 in the assay with SNB-75 CNS was 3.02 µM; in the assay on RPMI-8226 leukemia, 2.65 µM; in the assay on OVCAR-8 ovarian, 3.21 µM; with MALME-3M melanoma, 2.22 µM. Also, the TGI with NCI-H23 lung stood at 7.84 µM; with NCI-H226 lung, 42.5 µM; in the assay with LOX IMVI melanoma, 4.38 µM; with SN12C renal it was 13.4 µM; in the assay with IGROV1 ovarian it was 23.1 µM; in the assay with ACHN renal, 19.9 µM. The TGI in the assay with SNB-75 CNS amounted to 15.3 µM; in the assay with RPMI-8226 leukemia, 9.91 µM; in the assay on OVCAR-8 ovarian, 16.6 µM; in the assay with MALME-3M melanoma, 4.63 µM.
For `Cc1ccc(C(=O)Nc2ccc(CN3CCN(C)CC3)c(C(F)(F)F)c2)cc1C#Cc1cncc2ncccc12`, the GI50 in the assay with NCI-H23 lung is 0.894 µM; with NCI-H226 lung, 0.625 µM; with LOX IMVI melanoma it was 0.0978 µM; in the assay on SN12C renal it was 0.24 µM; in the assay with IGROV1 ovarian, 0.0879 µM; in the assay on ACHN renal, 0.162 µM. For the same compound, the GI50 in the assay on SNB-75 CNS is 0.264 µM; in the assay with RPMI-8226 leukemia, 0.584 µM; with OVCAR-8 ovarian, 0.446 µM; with MALME-3M melanoma it was 0.113 µM. Also, the TGI was 15.1 µM with NCI-H23 lung; 6.19 µM in the assay with NCI-H226 lung; 0.554 µM in the assay on LOX IMVI melanoma; 11.1 µM in the assay on SN12C renal; 0.755 µM in the assay on IGROV1 ovarian; 0.999 µM with ACHN renal. Also, the TGI with SNB-75 CNS came to 1.39 µM; with RPMI-8226 leukemia, 7.68 µM; in the assay on OVCAR-8 ovarian, 4.96 µM; with MALME-3M melanoma, 0.951 µM.
`C(=C1\CCC/C(=C/c2ccccc2)C1=NNc1ccccc1)/c1ccccc1`: the concentration for total growth inhibition (TGI) with NCI-H23 lung, in the assay with LOX IMVI melanoma, in the assay on SN12C renal, in the assay with IGROV1 ovarian, with ACHN renal and with SNB-75 CNS was over 100 µM throughout. The TGI in the assay with RPMI-8226 leukemia, with OVCAR-8 ovarian and in the assay with MALME-3M melanoma was over 100 µM in each case.
As for `O=C1c2cnccc2Cc2cccc3c2N1c1ccccc1S3`, the TGI was 52.7 µM with NCI-H23 lung; 57.5 µM in the assay with LOX IMVI melanoma; over 100 µM in the assay on SN12C renal; 98.9 µM with IGROV1 ovarian; 73.9 µM in the assay with ACHN renal; 48.5 µM in the assay on SNB-75 CNS. Also, the TGI in the assay with RPMI-8226 leukemia was 88.1 µM; in the assay with MALME-3M melanoma, 62.4 µM.
As for `O=C1C2C(C(=O)[N]1[Hg][c]1ccccc1)C1(Cl)C(Cl)=C(Cl)C2(Cl)C1(Cl)Cl` (stereo unspecified), the GI50 with NCI-H23 lung is 1.49 µM; in the assay with NCI-H226 lung, 1.59 µM; in the assay on LOX IMVI melanoma it was 1.02 µM; with IGROV1 ovarian it was 1.2 µM; with ACHN renal, 1.69 µM; in the assay with SNB-75 CNS, 1.33 µM. In addition, the GI50 in the assay with RPMI-8226 leukemia is 1.64 µM; with MALME-3M melanoma it was 1.32 µM. Further, the TGI in the assay on NCI-H23 lung came out at 3.32 µM; in the assay with NCI-H226 lung, 4.18 µM; in the assay on LOX IMVI melanoma, 2.39 µM; with IGROV1 ovarian, 3.63 µM; with ACHN renal, 3.07 µM; in the assay on SNB-75 CNS it was 2.92 µM. The TGI with RPMI-8226 leukemia worked out at 5.94 µM; with MALME-3M melanoma it was 3.02 µM.
Take `CN(C)c1nc(N(C)C)nc(N(C)CN(C)c2nc(N(C)C)nc(N(C)C)n2)n1`: the TGI in the assay on NCI-H23 lung, in the assay on LOX IMVI melanoma, in the assay on SN12C renal, in the assay with IGROV1 ovarian, in the assay with ACHN renal and in the assay on SNB-75 CNS was over 100 µM in each case. The TGI with RPMI-8226 leukemia, in the assay with OVCAR-8 ovarian and with MALME-3M melanoma was over 100 µM in each case.
Turning to `N/C(=N\OC(=O)NC(Cl)=C(Cl)Cl)c1cc(C(F)(F)F)cc(C(F)(F)F)c1`, the TGI is over 100 µM in the assay with NCI-H23 lung; 55.9 µM in the assay with NCI-H226 lung; 31.8 µM in the assay with LOX IMVI melanoma; 60.8 µM with SN12C renal; 66 µM in the assay on IGROV1 ovarian; 27.4 µM in the assay on ACHN renal. The TGI in the assay on RPMI-8226 leukemia was determined as 34.8 µM; in the assay on OVCAR-8 ovarian, 40.6 µM; in the assay on MALME-3M melanoma, 48.6 µM.
In the case of `C[C@@H]1CN(Cc2ccc(/C=C/c3n[nH]c4ccc5nc(-c6cn[nH]c6C(F)(F)F)c6c(c5c34)CCCC6)cc2)C[C@H](C)O1`, the GI50 with NCI-H23 lung is 5.71 µM; in the assay on NCI-H226 lung, 6.19 µM; with LOX IMVI melanoma, 2.33 µM; in the assay with SN12C renal, 2.46 µM; in the assay with IGROV1 ovarian, 1.33 µM; in the assay on ACHN renal it was 2.57 µM. The GI50 was 0.643 µM in the assay on SNB-75 CNS, 4.76 µM with OVCAR-8 ovarian and 4.96 µM in the assay on MALME-3M melanoma. Further, the TGI in the assay on NCI-H23 lung was determined as 21.7 µM; in the assay on NCI-H226 lung, 32.8 µM; with LOX IMVI melanoma, 10.8 µM; in the assay with SN12C renal, 14.9 µM; in the assay on IGROV1 ovarian, 10.7 µM; with ACHN renal, 13.7 µM. The TGI with SNB-75 CNS worked out at 10.1 µM; in the assay on OVCAR-8 ovarian it was 23.1 µM; in the assay with MALME-3M melanoma, 20.9 µM.
`COc1ccc2oc(-c3ccncc3)cc(=O)c2c1`: the total growth inhibition concentration (TGI) in the assay with NCI-H23 lung, in the assay with NCI-H226 lung, with LOX IMVI melanoma, in the assay on SN12C renal, in the assay with IGROV1 ovarian and in the assay on ACHN renal was over 100 µM in each case. For the same compound, the TGI in the assay on SNB-75 CNS, in the assay on RPMI-8226 leukemia and in the assay on MALME-3M melanoma was over 100 µM throughout.
For the compound `Cn1cc2ccccc2c1-c1nc(F)nc(Oc2ccc3c(c2)CC[C@@H]2C3CC[C@]3(C)C(O)CCC23)n1` (stereo partly specified), the TGI was over 100 µM in the assay on NCI-H226 lung; 36.9 µM in the assay with LOX IMVI melanoma; 33.8 µM in the assay on SN12C renal; 30.8 µM with IGROV1 ovarian; 34.1 µM in the assay on ACHN renal; 28.6 µM with SNB-75 CNS. Also, the total growth inhibition concentration (TGI) in the assay on OVCAR-8 ovarian is 36 µM; in the assay on MALME-3M melanoma, 39.9 µM.
